Measurements from article PMC12498190, “A Photocaged N‐Phosphonopiperidinone as a Selective Photo‐Cleavable DPP8/9 Inhibitor” (Chembiochem, 2025).

What was measured:
[1] = target: T1, DPP9 (Homo sapiens, UniProt Q86TI2); test: Progress-curve kinetics of covalent DPP9 inhibition (kinact, KI); format: biochemical; parameters: purchased Proteros Biostructures GmbH, Germany; conditions: dark
Text: As previously shown by us, 1 inhibits DPP8 and DPP9 via a covalent modification of the active site serine.^[ [31] ^] Therefore, we also measured the time dependence of this covalent modification of the target enzyme by recording progress curves for the inhibition of DPP8 and 9 and using them to calculate the corresponding binding affinity (KI), maximum enzyme inhibition rate (kinact) as well as the efficiency of covalent bond formation (kinact/KI) values for 5 after and without green light irradiation ( Figure S1 and Table S1, Supporting Information).
To calculate the reaction rate of covalent bond formation between DPP proteins and the inhibitor, kinact, KI, and kinact/KI were determined as previously described.^[ [49] ^, [50] ^] To this end, a dilution series of 5 was irradiated using a green LED lamp (λ = 520−530 nm; Eurolite, Germany) for 5 min and subsequently mixed with 250 µM GP‐AMC. The mixture was then added to 10 nM enzyme, and the resulting activity was measured for a maximum of 60 min at 30 °C. Fluorescence intensities were plotted against time and data were fitted to the following equation: [drawing 1] using Graph‐Pad Prism v10.4.1. The obtained pseudo first‐order rate constant was used to determine kinact and KI by fitting the plot of kobs against inhibitor concentration to the following equation: [drawing 2] . The efficiency of covalent bond formation (kinact/KI) was calculated by the ratio of kinact/KI. All measurements were performed in triplicate, and error bars represent standard errors of the fit.
Supplementary Figure 1. Kinetic analysis of DPP8 and DPP9 inhibition by compound 5. The pseudo-first order rate constant (kobs) was calculated from an exponential regression of progress curves and plotted against the concentration of compound 5. All measurement were performed in triplicate (n = 3 technical replicates), mean values are shown and error bars indicate the standard error of the mean (SEM). Inhibition assay was performed with DPP8 (A, B) and DPP9 (C, D) under ‘dark’ (A, C) and ‘light’ (B, D) conditions. […]

[2] = target: T1, DPP9; test: In situ competitive ABPP in HEK293 cell culture, 100 kDa band; format: cell-based; parameters: endogenous in cells; host or cells: HEK293 (Cytion, Germany, 300192); conditions: pre-incubation 1 h with 20 µM or 10 µM (method), 10 µM 2 for 1 h, light 5 min
Procedure: Figure 2 Competitive ABPP with photo‐cleavable inhibitor 5 in HEK293 cells. A) Schematic overview of a competitive ABPP experiment. A proteome is pre‐incubated with a competitor, followed by a labeling reaction with an activity‐based probe (ABP). In the case of a photocaged inhibitor, the active compound can be released via irradiation. Target proteins of the competitor cannot be bound by the ABP, resulting in an absence of the respective protein band in‐gel analysis. Created in BioRender. Najdzion, M. (2025) https://BioRender.com/84zn8cb B) Gel‐based competitive ABPP experiment in HEK293 cell lysates with the broadband serine hydrolase ABP ≡FP or the DPP8/9‐directed ABP 2 and the photocaged inhibitor 5, at the indicated concentrations, after or without prior irradiation with green light for 5 min. The corresponding pre‐incubation time for 5 was 30 min. C) Corresponding in situ competitive ABPP experiment in HEK293 cell culture, again with 10 µM 2 for 1 h. […] HEK293 cells were irradiated with a green LED lamp in the presence of 0.5% DMSO for 5 min (‘light’), and cell viability was measured after 24 h. […] For both compounds, cell viability was measured under ‘dark’ (not irradiated) and ‘light’ (irradiated for 5 min with a green LED lamp after the addition of the inhibitor) conditions. […]

T1 sequence (Q86TI2 whole entry): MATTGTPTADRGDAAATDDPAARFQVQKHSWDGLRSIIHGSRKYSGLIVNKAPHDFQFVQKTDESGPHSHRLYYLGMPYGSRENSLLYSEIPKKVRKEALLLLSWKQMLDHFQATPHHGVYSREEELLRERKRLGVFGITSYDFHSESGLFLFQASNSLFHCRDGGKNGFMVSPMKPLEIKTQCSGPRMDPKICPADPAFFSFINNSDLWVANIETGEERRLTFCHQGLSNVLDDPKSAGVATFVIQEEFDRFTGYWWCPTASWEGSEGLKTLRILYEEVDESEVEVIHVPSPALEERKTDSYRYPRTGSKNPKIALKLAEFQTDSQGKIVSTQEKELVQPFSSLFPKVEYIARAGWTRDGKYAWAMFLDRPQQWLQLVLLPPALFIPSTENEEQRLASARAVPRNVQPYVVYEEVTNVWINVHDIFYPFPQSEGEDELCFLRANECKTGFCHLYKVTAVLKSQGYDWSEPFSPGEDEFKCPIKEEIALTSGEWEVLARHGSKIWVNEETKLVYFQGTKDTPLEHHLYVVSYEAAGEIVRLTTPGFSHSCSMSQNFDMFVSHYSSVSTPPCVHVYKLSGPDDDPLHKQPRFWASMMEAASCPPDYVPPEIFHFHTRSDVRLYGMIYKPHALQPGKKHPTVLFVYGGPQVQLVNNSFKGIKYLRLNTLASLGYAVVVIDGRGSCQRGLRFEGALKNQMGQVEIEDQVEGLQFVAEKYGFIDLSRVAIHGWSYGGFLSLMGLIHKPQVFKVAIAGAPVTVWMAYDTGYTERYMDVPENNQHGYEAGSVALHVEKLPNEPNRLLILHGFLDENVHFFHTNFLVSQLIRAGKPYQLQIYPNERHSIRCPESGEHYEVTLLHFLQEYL

With `CCCCCc1ccc(SCCP(=O)(OCC)N2CCC[C@H](NC(=O)OCC3=C4C(C)=CC(C)=[N+]4[B-](C)(C)n4c(C)cc(C)c43)C2=O)cc1` (stereo partly shown) [Compound 5] the KI (inactivation) [1] was 32.2 µM, the kinact [1] was 0.000464 s⁻¹ and the kinact/KI [1] was 14 M⁻¹ s⁻¹. For the same compound, the “Competition of DPP9 labeling in live cells (in words)” value [2] was “completely inhibited”.
